From article PMC11539244, “Relative inhibitory activities of newly developed diazabicyclooctanes, boronic acid derivatives, and penicillin-based sulfone β-lactamase inhibitors against broad-spectrum AmpC β-lactamases” (Antimicrobial Agents and Chemotherapy, 2024)
Read-outs that look alike come from different tables or passages of the source.

Columns and labels:
[1] = test system: E. coli ADC-50 (E. coli TOP10 recombinant strain); assay: microbe, parasite or virus in culture; format: cell-based, Escherichia coli; details: Escherichia coli, read-out: MICs
Experimental: (§1) In order to assess the relative inhibitory activities of those BLI against AmpC β-lactamases, the corresponding blaampC genes without the original promoter sequences were amplified by PCR with specific primers, and corresponding amplicons were cloned into plasmid pUCp24, as described previously ([12], [13]). […] Cultures of E. coli TOP10 harboring recombinant plasmids and therefore producing the different AmpC tested were grown overnight at 37°C in Luria-Bertani agar medium containing amoxicillin (AMX) (50 µg/mL). The activity of the following acquired class C β-lactamases could therefore be evaluated, namely, ACC-1 (originally from Hafnia spp.), FOX-5 (from Aeromonas allosaccharophila), CMY-2 and CMY-42 (from Citrobacter spp.), DHA-1 (from Morganella morganii), ACT-7 and ACT-17 (from Enterobacter asburiae), MIR-17 (from Enterobacter roggenkampii), MOX-2 (from Aeromonas caviae), and LAT-1 (from Citrobacter portucalensis) ([5]). […] Altogether, these enzymes were chosen as representatives of clinically relevant class C β-lactamases being sources of intrinsic or acquired resistance to broad-spectrum β-lactams among most of the commonly identified Gram-negative bacteria in clinical practice.
(§2) MICs were determined in triplicate by broth microdilution (BMD) for CAZ and AMX, as well as their combinations with each β-lactamase inhibitor. CAZ, AMX, and CLA were purchased from Sigma-Aldrich (St. Louis, MO, USA). All others inhibitors (TAZ HY-W009168, AVI HY-14879, REL HY-16752, VAB HY-19930, NAC HY-109008, ZID HY-120859, TAN HY-109124, XER HY-136072, DUR HY-117974, EMT HY-103095) were purchased from MedChem Express (Luzern, Switzerland). The concentration of each β-lactamase inhibitor was chosen as the concentration used in the respective BL/BLI combination under development or commercially available, according to EUCAST or CLSI ([18], [19]). […] BMD assays were performed in cation-adjusted Mueller-Hinton (MH) broth (Bio-Rad, Marnes-la-Coquette, France) for all antibiotics or antibiotic combinations listed above, according to the EUCAST guidelines ([20]).

[2] = test system: E. coli ACT-17 (E. coli TOP10 recombinant strain); assay: microbe, parasite or virus in culture; format: cell-based; details: Escherichia coli, read-out: MICs
Experimental: as §1, §2

[3] = test system: E. coli Ear-1 (E. coli TOP10 recombinant strain); assay: microbe, parasite or virus in culture; format: cell-based; details: Escherichia coli, read-out: MICs
Experimental: as §1, §2

[4] = test system: E. coli LAT-1 (E. coli TOP10 recombinant strain); assay: microbe, parasite or virus in culture; format: cell-based; details: Escherichia coli, read-out: MICs
Experimental: as §1, §2

[5] = test system: E. coli MIR-17 (E. coli TOP10 recombinant strain); assay: microbe, parasite or virus in culture; format: cell-based; details: Escherichia coli, read-out: MICs
Experimental: as §1, §2

[6] = test system: E. coli PDC-5 (E. coli TOP10 recombinant strain); assay: microbe, parasite or virus in culture; format: cell-based; details: Escherichia coli, read-out: MICs
Experimental: as §1, §2

[7] = test system: E. coli PDC-382 (E. coli TOP10 recombinant strain); assay: microbe, parasite or virus in culture; format: cell-based; details: Escherichia coli, read-out: MICs
Experimental: as §1, §2

[8] = test system: E. coli YRC-1 (E. coli TOP10 recombinant strain); assay: microbe, parasite or virus in culture; format: cell-based; details: Escherichia coli, read-out: MICs
Experimental: as §1, §2

[9] = test system: E. coli ACT-7 (E. coli TOP10 recombinant strain); assay: microbe, parasite or virus in culture; format: cell-based; details: Escherichia coli, read-out: MICs
Experimental: as §1, §2

[10] = test system: E. coli SRT-2 (E. coli TOP10 recombinant strain); assay: microbe, parasite or virus in culture; format: cell-based; details: Escherichia coli, read-out: MICs
Experimental: as §1, §2

[11] = test system: E. coli CMY-42 (E. coli TOP10 recombinant strain); assay: microbe, parasite or virus in culture; format: cell-based; details: Escherichia coli, read-out: MICs
Experimental: as §1, §2

[12] = test system: E. coli ACC-1 (E. coli TOP10 recombinant strain); assay: microbe, parasite or virus in culture; format: cell-based; details: Escherichia coli, read-out: MICs
Experimental: as §1, §2

[13] = test system: E. coli CMY-2 (E. coli TOP10 recombinant strain); assay: microbe, parasite or virus in culture; format: cell-based; details: Escherichia coli, read-out: MICs
Experimental: as §1, §2

E. coli TOP10 [14] = assay: microbe, parasite or virus in culture; format: cell-based; details: Escherichia coli
Experimental: as §1, §2

[15] = test system: E. coli FOX-5 (E. coli TOP10 recombinant strain); assay: microbe, parasite or virus in culture; format: cell-based; details: Escherichia coli, read-out: MICs
Experimental: as §1, §2

[16] = test system: E. coli DHA-1 (E. coli TOP10 recombinant strain); assay: microbe, parasite or virus in culture; format: cell-based; details: Escherichia coli, read-out: MICs
Experimental: as §1, §2

[17] = test system: E. coli MOX-2 (E. coli TOP10 recombinant strain); assay: microbe, parasite or virus in culture; format: cell-based; details: Escherichia coli, read-out: MICs
Experimental: as §1, §2

[18] = test system: E. coli PDC-1 (E. coli TOP10 recombinant strain); assay: microbe, parasite or virus in culture; format: cell-based; details: Escherichia coli, read-out: MICs
Experimental: as §1, §2

E. coli ATCC 25922 = assay: MIC by broth microdilution, E. coli ATCC 25922; format: cell-based; details: Escherichia coli
Experimental: as §2

[19] = test system: Pseudomonas aeruginosa ATCC 27853 (inducible AmpC); assay: microbe, parasite or virus in culture; format: cell-based; details: ATCC27853, QC strain P. aeruginosa ATCC 27853, broth microdilution, Table S1, read-out: Minimal Inhibitory Concentrations
Experimental: as §2
(§3) Table S1. Susc eptibility testing of al l QC strains used in the study.
(§4) Mi n ima l In hibitory Concentrations (µg / ml) a […]

[20] = test system: Klebsiella pneumoniae ATCC 700603 (SHV-18, OXA-2); assay: microbe, parasite or virus in culture; format: cell-based; details: ATCC700603, read-out: Minimal Inhibitory Concentrations
Experimental: as §2, §3, §4

[21] = test system: Escherichia coli NCTC 13353 (CTX-M-15, OXA-1); assay: QC susceptibility testing (MIC), E. coli NCTC 13353; format: cell-based; details: NCTC13353, read-out: Minimal Inhibitory Concentrations
Experimental: as §2, §3, §4

MOX-2 = MOX-2 (Aeromonas caviae, UniProt Q9L3G2); assay: IC50 of β-lactamase inhibitors, crude extract, MOX-2; format: biochemical
DHA-1 = DHA-1 (Morganella morganii, UniProt P94958); assay: IC50 of β-lactamase inhibitors, crude extract, DHA-1; format: biochemical
ACT-7 = ACT-7 (Enterobacter asburiae, UniProt B6V6L3); assay: biochemical
PDC-382 = PDC-382 (Pseudomonas aeruginosa, UniProt P24735, T96I); assay: biochemical; set-up: species or system P. aeruginosa
CMY-2 = molecular target: T1, CMY-2 (Klebsiella pneumoniae, UniProt Q48434); assay: biochemical; set-up: species or system Citrobacter spp.
T1 construct: made in house; host or cells: E. coli TOP10, plasmid pUCp24

SRT-1 = SRT-1 (Serratia marcescens, UniProt P18539); assay: IC50 of β-lactamase inhibitors, crude extract, SRT-1; format: biochemical; details: crude extract of E. coli TOP10 recombinant strain, mean of triplicate
ACT-17 = ACT-17 (Enterobacter asburiae, UniProt P05364); format: biochemical; details: crude extract of E. coli TOP10 recombinant strain, mean of triplicate
Ear-1 = Ear-1 (Klebsiella aerogenes, UniProt A0A0H3FRQ3); assay: IC50 of β-lactamase inhibitors, crude extract, Ear-1; format: biochemical
MIR-17 = assay: IC50 of β-lactamase inhibitors, crude extract, MIR-17; format: biochemical, Enterobacter roggenkampii; details: crude extract of E. coli TOP10 recombinant strain, mean of triplicate
PDC-5 = molecular target: T2, PDC-5 (Pseudomonas aeruginosa, UniProt P24735, R79Q/T105A); assay: biochemical; set-up: species or system P. aeruginosa
T2 construct: made in house; host or cells: E. coli TOP10, plasmid pUCp24

PDC-1 = molecular target: T3, PDC-1 (Pseudomonas aeruginosa, UniProt P24735); assay: biochemical; set-up: species or system P. aeruginosa
T3 construct: made in house; host or cells: E. coli TOP10, plasmid pUCp24

CMY-42 = molecular target: T4, CMY-42 (Klebsiella pneumoniae, UniProt Q48434, V231S); assay: biochemical; set-up: species or system Citrobacter spp.
T4 construct: made in house; host or cells: E. coli TOP10, plasmid pUCp24

ADC-50 = ADC-50 (Acinetobacter baumannii, UniProt Q6DRA1); assay: IC50 of β-lactamase inhibitors, crude extract, ADC-50; format: biochemical, A. baumannii; details: ADC-50, crude extract of E. coli TOP10 recombinant strain, mean of triplicate
ACC-1 = ACC-1 (Hafnia alvei, UniProt Q9XB24); assay: IC50 of β-lactamase inhibitors, crude extract, ACC-1; format: biochemical
E. coli TOP10 [22] = test system: E. coli TOP10; set-up: method as in PMID 38727224; details: inhibitor alone, previous study; cited from earlier work
YRC-1 = YRC-1 (Yersinia ruckeri, UniProt Q20I87); assay: IC50 of β-lactamase inhibitors, crude extract, YRC-1; format: biochemical
LAT-1 = LAT-1 (Citrobacter portucalensis, UniProt Q48443); assay: biochemical
FOX-5 = FOX-5 (Aeromonas allosaccharophila, UniProt Q9F4K3); assay: IC50 of β-lactamase inhibitors, crude extract, FOX-5; format: biochemical
[23] = ATCC25922, E. coli ATCC 25922, β-lactam alone or with inhibitor at fixed conc.: CLA 2 µg/mL, TZB, AVI, REL, NAC, ZID, DUR, TAN 4 µg/mL, VAB, XER, EMT 8 µg/mL, read-out: MICs

SRT-1, sequence (P18539 22-376): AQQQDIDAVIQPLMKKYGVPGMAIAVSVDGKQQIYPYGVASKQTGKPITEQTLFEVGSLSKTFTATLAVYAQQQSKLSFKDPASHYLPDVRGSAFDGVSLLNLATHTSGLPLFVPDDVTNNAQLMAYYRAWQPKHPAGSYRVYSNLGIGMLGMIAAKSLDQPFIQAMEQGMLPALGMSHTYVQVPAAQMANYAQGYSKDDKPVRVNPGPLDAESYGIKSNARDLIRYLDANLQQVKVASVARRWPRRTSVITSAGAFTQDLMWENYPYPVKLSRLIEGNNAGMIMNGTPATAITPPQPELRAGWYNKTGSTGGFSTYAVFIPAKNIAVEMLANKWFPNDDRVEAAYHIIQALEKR
Ear-1, sequence (A0A0H3FRQ3 entry or part of it): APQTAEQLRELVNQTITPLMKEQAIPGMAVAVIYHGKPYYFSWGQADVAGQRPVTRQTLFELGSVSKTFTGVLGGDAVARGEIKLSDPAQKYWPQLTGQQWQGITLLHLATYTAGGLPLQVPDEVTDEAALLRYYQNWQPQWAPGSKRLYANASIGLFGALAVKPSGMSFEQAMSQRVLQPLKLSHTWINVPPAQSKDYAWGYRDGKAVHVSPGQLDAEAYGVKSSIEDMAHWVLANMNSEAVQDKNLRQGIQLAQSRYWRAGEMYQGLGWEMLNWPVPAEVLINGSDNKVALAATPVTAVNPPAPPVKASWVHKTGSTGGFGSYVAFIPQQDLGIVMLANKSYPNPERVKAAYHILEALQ
ACC-1, sequence (Q9XB24 entry or part of it): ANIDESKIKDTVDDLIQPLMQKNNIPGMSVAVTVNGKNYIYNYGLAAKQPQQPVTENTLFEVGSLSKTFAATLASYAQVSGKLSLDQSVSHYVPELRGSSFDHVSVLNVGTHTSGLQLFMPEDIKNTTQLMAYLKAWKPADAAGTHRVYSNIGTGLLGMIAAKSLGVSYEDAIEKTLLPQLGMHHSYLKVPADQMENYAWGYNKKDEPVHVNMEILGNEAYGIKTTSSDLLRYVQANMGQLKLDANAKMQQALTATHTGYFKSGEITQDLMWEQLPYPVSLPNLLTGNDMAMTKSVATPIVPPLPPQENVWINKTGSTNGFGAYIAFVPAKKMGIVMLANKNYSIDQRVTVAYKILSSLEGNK
FOX-5, sequence (Q9F4K3 entry or part of it): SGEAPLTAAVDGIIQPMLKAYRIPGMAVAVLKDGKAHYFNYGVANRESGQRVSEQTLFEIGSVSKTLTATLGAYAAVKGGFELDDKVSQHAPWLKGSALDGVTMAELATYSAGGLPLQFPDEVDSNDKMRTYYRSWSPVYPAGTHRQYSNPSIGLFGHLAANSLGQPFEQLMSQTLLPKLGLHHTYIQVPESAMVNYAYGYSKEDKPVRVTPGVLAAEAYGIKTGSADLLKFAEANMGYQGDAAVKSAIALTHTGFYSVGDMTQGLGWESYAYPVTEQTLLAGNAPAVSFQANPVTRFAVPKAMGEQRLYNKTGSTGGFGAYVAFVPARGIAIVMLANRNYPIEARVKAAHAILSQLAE
T2 sequence (P24735 27-397 R79Q/T105A): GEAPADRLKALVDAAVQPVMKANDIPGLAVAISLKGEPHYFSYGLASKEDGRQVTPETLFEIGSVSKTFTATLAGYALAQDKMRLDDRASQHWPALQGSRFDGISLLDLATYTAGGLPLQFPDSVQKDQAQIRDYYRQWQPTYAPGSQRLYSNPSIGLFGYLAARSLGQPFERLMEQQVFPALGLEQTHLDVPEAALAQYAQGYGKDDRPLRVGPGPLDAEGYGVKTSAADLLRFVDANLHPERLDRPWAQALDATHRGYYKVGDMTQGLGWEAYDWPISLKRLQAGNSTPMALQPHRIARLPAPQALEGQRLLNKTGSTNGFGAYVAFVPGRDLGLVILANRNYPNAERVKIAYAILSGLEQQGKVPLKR
YRC-1, sequence (Q20I87 entry or part of it): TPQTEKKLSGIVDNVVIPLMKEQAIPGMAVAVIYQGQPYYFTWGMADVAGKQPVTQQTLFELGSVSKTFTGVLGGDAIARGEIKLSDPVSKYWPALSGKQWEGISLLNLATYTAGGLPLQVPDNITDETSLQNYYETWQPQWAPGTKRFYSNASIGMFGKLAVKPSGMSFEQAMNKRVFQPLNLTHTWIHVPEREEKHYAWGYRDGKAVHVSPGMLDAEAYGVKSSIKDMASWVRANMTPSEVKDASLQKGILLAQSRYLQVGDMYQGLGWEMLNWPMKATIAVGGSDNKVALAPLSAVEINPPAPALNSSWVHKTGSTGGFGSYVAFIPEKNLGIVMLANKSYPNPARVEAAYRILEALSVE
PDC-382, sequence (P24735 27-397 T96I): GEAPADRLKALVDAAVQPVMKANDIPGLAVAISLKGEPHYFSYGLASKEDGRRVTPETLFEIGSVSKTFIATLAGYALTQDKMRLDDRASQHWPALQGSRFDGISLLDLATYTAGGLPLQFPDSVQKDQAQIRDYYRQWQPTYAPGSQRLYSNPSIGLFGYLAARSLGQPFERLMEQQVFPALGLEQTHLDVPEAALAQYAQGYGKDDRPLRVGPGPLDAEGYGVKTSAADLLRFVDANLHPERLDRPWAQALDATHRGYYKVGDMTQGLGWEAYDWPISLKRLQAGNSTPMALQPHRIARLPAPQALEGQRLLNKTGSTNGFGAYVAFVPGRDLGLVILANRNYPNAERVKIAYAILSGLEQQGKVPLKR
T4 sequence (Q48434 21-381 V231S): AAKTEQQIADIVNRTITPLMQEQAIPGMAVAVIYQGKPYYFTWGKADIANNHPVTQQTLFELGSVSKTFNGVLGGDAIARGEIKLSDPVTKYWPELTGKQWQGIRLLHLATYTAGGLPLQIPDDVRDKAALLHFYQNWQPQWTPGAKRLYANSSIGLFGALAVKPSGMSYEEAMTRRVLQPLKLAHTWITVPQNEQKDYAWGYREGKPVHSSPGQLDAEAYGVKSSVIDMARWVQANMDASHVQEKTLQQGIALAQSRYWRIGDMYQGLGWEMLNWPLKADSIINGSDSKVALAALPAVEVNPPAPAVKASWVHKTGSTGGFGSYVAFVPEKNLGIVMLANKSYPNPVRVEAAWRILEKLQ
T1 sequence (Q48434 21-381): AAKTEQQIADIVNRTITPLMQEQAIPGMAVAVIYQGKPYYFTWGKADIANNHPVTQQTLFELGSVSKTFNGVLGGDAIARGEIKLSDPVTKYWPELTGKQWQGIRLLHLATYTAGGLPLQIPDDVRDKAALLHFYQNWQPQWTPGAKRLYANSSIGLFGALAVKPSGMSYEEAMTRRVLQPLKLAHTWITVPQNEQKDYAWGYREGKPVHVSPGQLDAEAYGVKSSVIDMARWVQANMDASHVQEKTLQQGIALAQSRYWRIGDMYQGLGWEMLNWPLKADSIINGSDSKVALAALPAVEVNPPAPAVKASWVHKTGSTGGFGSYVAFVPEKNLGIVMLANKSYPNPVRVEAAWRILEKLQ
MOX-2, sequence (Q9L3G2 entry or part of it): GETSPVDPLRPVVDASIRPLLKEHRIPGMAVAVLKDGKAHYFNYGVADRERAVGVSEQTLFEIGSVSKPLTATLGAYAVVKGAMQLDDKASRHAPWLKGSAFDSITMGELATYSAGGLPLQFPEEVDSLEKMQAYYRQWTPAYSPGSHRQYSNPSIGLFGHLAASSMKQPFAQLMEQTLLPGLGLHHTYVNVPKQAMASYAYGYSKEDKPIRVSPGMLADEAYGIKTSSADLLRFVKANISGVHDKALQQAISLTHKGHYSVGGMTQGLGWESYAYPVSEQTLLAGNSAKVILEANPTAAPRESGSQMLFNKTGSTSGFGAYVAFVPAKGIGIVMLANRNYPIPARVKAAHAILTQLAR
LAT-1, sequence (Q48443 entry or part of it): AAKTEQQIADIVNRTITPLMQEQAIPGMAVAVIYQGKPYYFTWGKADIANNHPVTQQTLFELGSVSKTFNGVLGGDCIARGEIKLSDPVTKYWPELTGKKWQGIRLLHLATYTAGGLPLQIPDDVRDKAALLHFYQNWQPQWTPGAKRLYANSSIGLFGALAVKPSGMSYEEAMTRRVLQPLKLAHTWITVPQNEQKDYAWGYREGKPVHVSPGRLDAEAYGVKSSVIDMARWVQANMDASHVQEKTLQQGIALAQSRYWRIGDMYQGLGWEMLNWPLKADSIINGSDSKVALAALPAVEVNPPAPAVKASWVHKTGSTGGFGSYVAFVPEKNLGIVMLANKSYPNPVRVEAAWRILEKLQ
ACT-7, sequence (B6V6L3 entry or part of it): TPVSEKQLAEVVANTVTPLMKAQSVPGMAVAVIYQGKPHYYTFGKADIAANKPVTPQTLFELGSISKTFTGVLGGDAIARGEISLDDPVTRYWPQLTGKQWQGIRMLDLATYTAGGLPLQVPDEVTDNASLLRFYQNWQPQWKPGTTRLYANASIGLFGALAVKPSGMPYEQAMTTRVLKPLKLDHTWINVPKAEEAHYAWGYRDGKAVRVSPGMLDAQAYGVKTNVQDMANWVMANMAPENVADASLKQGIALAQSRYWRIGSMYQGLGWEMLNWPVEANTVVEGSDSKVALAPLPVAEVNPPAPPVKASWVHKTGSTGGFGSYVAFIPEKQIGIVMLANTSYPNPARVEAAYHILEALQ
T3 sequence (P24735 27-397): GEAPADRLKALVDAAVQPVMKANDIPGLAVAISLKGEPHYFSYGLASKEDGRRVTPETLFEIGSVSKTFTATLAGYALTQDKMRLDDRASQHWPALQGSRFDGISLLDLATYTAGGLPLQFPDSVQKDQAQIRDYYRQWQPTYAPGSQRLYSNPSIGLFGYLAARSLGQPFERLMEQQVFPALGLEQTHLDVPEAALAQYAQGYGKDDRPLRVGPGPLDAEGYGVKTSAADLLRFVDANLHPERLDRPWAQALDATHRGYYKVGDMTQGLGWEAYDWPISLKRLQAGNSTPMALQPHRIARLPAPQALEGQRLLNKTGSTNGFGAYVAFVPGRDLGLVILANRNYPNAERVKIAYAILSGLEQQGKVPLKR

Compound	MIC [1] [µg/mL]	MIC [2] [µg/mL]	MIC [3] [µg/mL]	MIC [4] [µg/mL]	MIC [5] [µg/mL]	MIC [6] [µg/mL]	MIC [7] [µg/mL]	MIC [8] [µg/mL]	MIC [9] [µg/mL]	MIC [10] [µg/mL]	MIC [11] [µg/mL]	MIC [12] [µg/mL]	MIC [13] [µg/mL]	MIC [15] [µg/mL]	MIC [16] [µg/mL]	MIC [17] [µg/mL]	MIC [18] [µg/mL]	MIC (E. coli ATCC 25922; [23]) [µg/mL]	also measured
CC1(C)S[C@@H]2[C@H](NC(=O)[C@H](N)c3ccc(O)cc3)C(=O)N2[C@H]1C(=O)O [Amoxicillin, amoxicillin]	512	512	> 1020	512	128	16	16	512	1020	128	1020	32	> 1020	8	1020	8	16	4	MIC (E. coli TOP10 [14]; TOP10, read-out: MICs): 1 µg/mL
CC(C)(O/N=C(\C(=O)N[C@@H]1C(=O)N2C(C(=O)[O-])=C(C[n+]3ccccc3)CS[C@H]12)c1csc(N)n1)C(=O)O [Ceftazidime, ceftazidime]	64	32	> 256	64	4	1	2	8	64	4	> 256	32	> 256	8	128	0.5	0.5	0.06	MIC (E. coli TOP10 [14]; E. coli TOP10, broth microdilution, β-lactam alone or with inhibitor at fixed conc.: CLA 2 µg/mL, TZB, AVI, REL, NAC, ZID, DUR, TAN 4 µg/mL, VAB, XER, EMT 8 µg/mL, read-out: MICs): 0.25 µg/mL; MIC (E. coli ATCC 25922; ATCC25922, QC strain E. coli ATCC 25922, Table S1, read-out: Minimal Inhibitory Concentrations): 0.06 µg/mL; MIC [19]: 2 µg/mL; MIC [20]: 64 µg/mL; MIC [21]: 256 µg/mL
O=C(O)c1c(F)ccc2c1OB(O)[C@@H]1C[C@H]21 [Xeruborbactam, xeruborbactam]																			IC50 (MOX-2): 260 nM; IC50 (DHA-1): 160 nM; IC50 (ACT-7): 290 nM; IC50 (PDC-382): 320 nM; IC50 (CMY-2): 280 nM; IC50 (SRT-1): 220 nM; IC50 (ACT-17): 200 nM; IC50 (Ear-1): 220 nM; IC50 (MIR-17): 310 nM; IC50 (PDC-5): 660 nM; IC50 (PDC-1): 670 nM; IC50 (CMY-42): 430 nM; IC50 (ADC-50): 5.4 µM; IC50 (ADC-50; listed as XER): 5 µM; IC50 (ACC-1): 90 nM; MIC value of XER alone (E. coli TOP10 [22]): above 16 µg/mL; IC50 (YRC-1): 960 nM; IC50 (LAT-1): 340 nM; IC50 (FOX-5): 230 nM
